Results on 50 compounds are retold here after ChEMBL document CHEMBL1148638, “Aminopyridine-based c-Jun N-terminal kinase inhibitors with cellular activity and minimal cross-kinase activity” (J Med Chem, 2006).

Experiment [1] concerns the target Mitogen-activated protein kinase 8 (Homo sapiens, UniProt P45983). The experiment in a line: Inhibition of JNK1-mediated ATF2 phosphorylation.
Experiment [2] deals with Mitogen-activated protein kinase 9 (Homo sapiens, UniProt P45984). Nature of the experiment: Inhibition of JNK2-mediated ATF2 phosphorylation.
Sequence of Mitogen-activated protein kinase 9 (P45984 whole entry): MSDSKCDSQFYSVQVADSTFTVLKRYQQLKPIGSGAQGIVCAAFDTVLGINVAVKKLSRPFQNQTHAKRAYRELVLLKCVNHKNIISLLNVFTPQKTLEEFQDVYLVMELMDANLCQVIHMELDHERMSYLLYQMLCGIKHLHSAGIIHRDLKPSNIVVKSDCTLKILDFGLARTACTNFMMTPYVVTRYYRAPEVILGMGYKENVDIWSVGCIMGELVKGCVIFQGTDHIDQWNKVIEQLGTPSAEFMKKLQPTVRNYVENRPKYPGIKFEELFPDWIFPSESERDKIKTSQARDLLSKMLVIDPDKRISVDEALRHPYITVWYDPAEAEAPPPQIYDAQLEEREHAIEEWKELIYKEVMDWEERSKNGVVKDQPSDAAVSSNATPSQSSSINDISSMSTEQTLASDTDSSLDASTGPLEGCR
The target of experiment [3] is c-Jun N-terminal kinase, JNK (Homo sapiens, UniProt P45983+P53779+P45984). The experiment in a line: Inhibition of cJun phosphorylation in HepG2 cell line.

Sequence of Mitogen-activated protein kinase 8 (P45983 whole entry): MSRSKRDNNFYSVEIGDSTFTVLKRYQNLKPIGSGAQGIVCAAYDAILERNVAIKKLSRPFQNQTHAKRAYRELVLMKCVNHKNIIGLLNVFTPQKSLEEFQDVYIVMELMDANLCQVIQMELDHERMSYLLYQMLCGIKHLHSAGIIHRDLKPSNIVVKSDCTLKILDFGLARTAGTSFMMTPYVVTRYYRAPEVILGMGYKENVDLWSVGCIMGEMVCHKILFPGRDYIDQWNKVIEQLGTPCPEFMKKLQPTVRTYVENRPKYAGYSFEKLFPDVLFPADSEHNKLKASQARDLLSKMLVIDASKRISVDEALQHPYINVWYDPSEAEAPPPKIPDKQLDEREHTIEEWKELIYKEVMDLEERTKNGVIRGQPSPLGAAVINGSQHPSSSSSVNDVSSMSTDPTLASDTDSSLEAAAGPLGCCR

`CCOc1nc(NC(=O)Cc2cccc(C)c2)cc(N)c1C#N`: the IC50 – broadly, the point on the concentration scale where inhibition reaches its midpoint – in experiment [1] came to 420 nM; in experiment [2] it was 790 nM.
With `CCOc1nc(NC(=O)Cc2cc(C)ccc2C)cc(N)c1C#N`, the IC50 in experiment [1] was 4400 nM; in experiment [2] it was greater than 10000 nM.
With `CCOc1nc(NC(=O)Cc2ccccc2C)cc(N)c1C#N`, the IC50 in experiment [1] came out at 400 nM; in experiment [2], 740 nM.
Take `CC(=O)Nc1cc(N)c(C#N)c(OCCN(C)C)n1`: the IC50 in experiment [1] and in experiment [2] was greater than 10000 nM in each case.
Regarding `CCOc1nc(NC(=O)CN2CCOCC2)cc(N)c1C#N`, the IC50 in experiment [1] turned out to be 270 nM; in experiment [2] it was 1200 nM.
On the same counts, the results for `CCOc1nc(NC(=O)C(C)C)cc(N)c1C#N` are 4000 nM and 8400 nM.
Regarding `CC(=O)Nc1cc(N)c(C#N)c(NC(C)C)n1`, the figures for the IC50 in experiment [1] and in experiment [2] were 910 nM and 3000 nM, respectively.
On the same counts, the results for `CCOc1nc(NCCc2cc(OC)ccc2OC)cc(N)c1C#N` are greater than 10000 nM and greater than 10000 nM.
For the compound `CCOc1nc(NC(=O)Cc2ccc(C)cc2)cc(N)c1C#N`, the IC50 in experiment [1] stood at 190 nM; in experiment [2], 360 nM. The EC50 – broadly, the concentration giving half of the maximal effect – in experiment [3] came out at 3400 nM.
On the same counts, the results for `CCOc1nc(NC(=O)Cc2cccc(OC)c2)cc(N)c1C#N` are 210 nM, 310 nM and 2500 nM.
Take `CCOc1nc(NC(=O)Cc2ccc(Cl)cc2)cc(N)c1C#N`: the IC50 came out at 580 nM in experiment [1] and 610 nM in experiment [2].
On the same counts, the results for `CCOc1nc(NC(=O)CN(CC)CC)cc(N)c1C#N` are 2700 nM and 6300 nM.
`CCOc1nc(NC(=O)Cc2cc(OC)c([N+](=O)[O-])cc2OC)cc(N)c1C#N`: the values for the IC50 in experiment [1] and in experiment [2] were 69 nM and 100 nM, respectively. For the same compound, the EC50 in experiment [3] amounted to 910 nM.
For `CCCCNC(=O)C1CCN(CC(=O)Nc2cc(N)c(C#N)c(OCC)n2)CC1`, the IC50 in experiment [1] is 69 nM; in experiment [2], 180 nM. Moreover, the EC50 in experiment [3] is greater than 10000 nM.
The like results for `CCOc1nc(NC(=O)Cc2cc(OC)c(NC(C)=O)cc2OC)cc(N)c1C#N` were, in that order, 35 nM, 26 nM and 280 nM.
For the compound `CCOc1nc(NC(=O)CN2CCC(O)CC2)cc(N)c1C#N`, the IC50 in experiment [1] was found to be 300 nM; in experiment [2], 640 nM.
The like results for `CCCc1nc(NC(C)=O)cc(N)c1C#N` were, in that order, greater than 10000 nM and greater than 10000 nM.
The like results for `CCOc1nc(NC(=O)CC(C)C)cc(N)c1C#N` were, in that order, 1400 nM and 3500 nM.
In experiment [2], `CCOc1cccc(NC(C)=O)n1` displayed an IC50 greater than 10000 nM.
In the case of `CC(=O)Nc1cc(N)c(C#N)c(OCCC(=O)O)n1`, the IC50 in experiment [1] is 4800 nM; in experiment [2], 4900 nM.
`COc1nc(NC(C)=O)cc(N)c1C#N`: the IC50 is 2200 nM in experiment [1] and 4500 nM in experiment [2].
Take `COc1ccc(OC)c(CC(=O)Nc2cc(N)c(C#N)c(OCCO)n2)c1`: the IC50 in experiment [1] worked out at 74 nM; in experiment [2] it was 240 nM. In addition, the EC50 in experiment [3] is 1600 nM.
With `CCCCC(=O)Nc1nc(OCC)c(C#N)c(N)c1Cl`, the IC50 in experiment [1] and in experiment [2] was greater than 10000 nM each time.
For the compound `CCCCC(=O)N(C)c1cc(N)c(C#N)c(OCC)n1`, the 50% inhibitory concentration (IC50) in experiment [1] and in experiment [2] was greater than 10000 nM each time.
With `CCOc1nc(NC(=O)Cc2cccc(Cl)c2)cc(N)c1C#N`, the IC50 in experiment [1] stood at 300 nM; in experiment [2], 900 nM.
Regarding `CCOc1nc(NC(=O)Cc2ccccc2OC)cc(N)c1C#N`, the IC50 in experiment [1] stood at 120 nM; in experiment [2] it was 260 nM. Besides, the EC50 in experiment [3] came to 1400 nM.
As to `CCNC(=O)Nc1cc(N)c(C#N)c(OCC)n1`, the IC50 in experiment [1] and in experiment [2] was greater than 10000 nM in each case.
In the case of `CCOc1nc(NC(=O)OC)cc(N)c1C#N`, the IC50 in experiment [1] and in experiment [2] was greater than 10000 nM in each case.
As to `COc1ccc(OC)c(CC(=O)Nc2cc(N)c(C#N)cn2)c1`, the results for the IC50 in experiment [1] and in experiment [2] were 2600 nM and 5100 nM, respectively.
The like results for `CCCCN(CCCC)CC(=O)Nc1cc(N)c(C#N)c(OCC)n1` were, in that order, 3500 nM and greater than 10000 nM.
On the same counts, the results for `CCCCNCC(=O)Nc1cc(N)c(C#N)c(OCC)n1` are 6300 nM and greater than 10000 nM.
For the compound `CCOc1nc(NC(C)=O)cc(C)c1C#N`, the IC50 in experiment [1] and in experiment [2] was greater than 10000 nM throughout.
Take `CCOc1nc(NC(=O)Cc2ccccc2)cc(N)c1C#N`: the IC50 in experiment [1] came out at 570 nM; in experiment [2], 770 nM.
Turning to `COCCOc1nc(NC(=O)Cc2cc(OC)ccc2OC)cc(N)c1C#N`, the IC50 turned out to be 110 nM in experiment [1] and 270 nM in experiment [2]. In experiment [3], the half-maximal effective concentration (EC50) amounted to 1400 nM.
With `CCOc1nc(NC(=O)Cc2ccccc2Cl)cc(N)c1C#N`, the IC50 in experiment [1] is 1100 nM; in experiment [2] it was 4900 nM.
On the same counts, the results for `CC(=O)Nc1cc(N)c(C#N)c(OC2CCOC2)n1` (stereo not given) are 890 nM and 2900 nM.
As for `CCOc1nc(NC(=O)CN2CCC(C(=O)NC(C)C)CC2)cc(N)c1C#N`, the IC50 was determined as 87 nM in experiment [1] and 130 nM in experiment [2]. Moreover, the EC50 in experiment [3] turned out to be 3900 nM.
On to `CCCCSc1nc(NC(C)=O)cc(N)c1C#N`, for which the values for the IC50 in experiment [1] and in experiment [2] were 8900 nM and greater than 10000 nM, respectively.
On the same counts, the results for `CCCCC(=O)Nc1cc(N)c(C#N)c(OCC)n1` are 350 nM and 690 nM.
The like results for `CCOc1cc(NC(C)=O)nc(N)c1C#N` were, in that order, greater than 10000 nM and greater than 10000 nM.
The like results for `CC(=O)Nc1cc(N)c(C#N)c(OC(C)C)n1` were, in that order, 310 nM and 470 nM.
Take `CCCCOc1nc(NC(C)=O)cc(N)c1C#N`: the IC50 in experiment [1] came out at 2100 nM; in experiment [2], 4660 nM.
On the same counts, the results for `CCOc1nc(NC(=O)Cc2cc(Br)ccc2Br)cc(N)c1C#N` are 3000 nM and greater than 10000 nM.
On the same counts, the results for `CCNc1nc(NC(C)=O)cc(N)c1C#N` are 2400 nM and greater than 10000 nM.
On the same counts, the results for `COc1ccc(OC)c(CC(=O)Nc2cc(N)c(C#N)c(OCCS(C)(=O)=O)n2)c1` are 400 nM and 740 nM.
For `COc1ccc(OC)c(CC(=O)Nc2cc(N)c(C#N)c(Br)n2)c1`, the IC50 in experiment [1] was 1700 nM; in experiment [2], greater than 10000 nM.
Compound `CCOc1nc(NC(=O)Cc2cc(OC)c(Br)cc2OC)cc(N)c1C#N` yielded an IC50 in experiment [2] of 160 nM. The compound further displayed an EC50 in experiment [3] of 890 nM.
For the compound `CCCN(CCO)CC(=O)Nc1cc(N)c(C#N)c(OCC)n1`, the values for the IC50 in experiment [1] and in experiment [2] were 160 nM and 740 nM, respectively. The compound also yielded an EC50 in experiment [3] of 5500 nM.
With `CCOc1nc(NC(=O)CN2CCCCC2)cc(N)c1C#N`, the IC50 in experiment [1] was found to be 510 nM; in experiment [2] it was 3400 nM.
Regarding `CCOc1nc(NC(=O)Cc2ccc(OC)cc2)cc(N)c1C#N`, the figures for the IC50 in experiment [1] and in experiment [2] were 180 nM and 274 nM, respectively. In experiment [3], this compound gave an EC50 of 1400 nM.
